Experimental data: the NIST ThermoML archive (doi:10.1016/j.jct.2008.01.024)
± gives the expanded uncertainty stated by the source.

Key:
[1] = Liquid; for mass density: 298.15 K, 101.33 kPa; for vapor or sublimation pressure: Ebulliometric method (Recirculating still)
[2] = excess molar enthalpy (molar enthalpy of mixing); xn = mol fraction of the nth substance listed; details: 101 kPa, Liquid, Flow calorimetry

In the case of ClCCCl [1,2-dichloroethane], the mass density [1] is reported as 1245.6 ± 0.76 kg/m3 and the “vapor or sublimation pressure” value ([1]; 313.15 K) is reported as 20.75 ± 0.025 kPa.
ClCCCl [1,2-dichloroethane] + CN1CCCC1=O gave an excess molar enthalpy ([2]; 298.15 K, x2 = 0.057) of -0.0545 ± 0.00263 kcal/mol, an excess molar enthalpy ([2]; 298.15 K, x2 = 0.105) of -0.111 ± 0.00239 kcal/mol and an excess molar enthalpy ([2]; 298.15 K, x2 = 0.203) of -0.198 ± 0.00239 kcal/mol. For the same compound, the excess molar enthalpy ([2]; 298.15 K, x2 = 0.301) was -0.2624 ± 0.00239 kcal/mol, the excess molar enthalpy ([2]; 298.15 K, x2 = 0.4) was -0.2949 ± 0.00239 kcal/mol and the excess molar enthalpy ([2]; 298.15 K, x2 = 0.5) was -0.3021 ± 0.00263 kcal/mol. The excess molar enthalpy ([2]; 298.15 K, x2 = 0.601) was -0.2825 ± 0.00239 kcal/mol, the excess molar enthalpy ([2]; 298.15 K, x2 = 0.702) was -0.238 ± 0.00239 kcal/mol and the excess molar enthalpy ([2]; 298.15 K, x2 = 0.805) was -0.175 ± 0.00215 kcal/mol. The excess molar enthalpy ([2]; 298.15 K, x2 = 0.909) was -0.0935 ± 0.00215 kcal/mol, the excess molar enthalpy ([2]; 298.15 K, x2 = 0.961) was -0.0433 ± 0.00215 kcal/mol and the excess molar enthalpy ([2]; 308.15 K, x2 = 0.058) was -0.0578 ± 0.00263 kcal/mol. The excess molar enthalpy ([2]; 308.15 K, x2 = 0.107) was -0.113 ± 0.00239 kcal/mol, the excess molar enthalpy ([2]; 308.15 K, x2 = 0.207) was -0.202 ± 0.00239 kcal/mol and the excess molar enthalpy ([2]; 308.15 K, x2 = 0.307) was -0.266 ± 0.00239 kcal/mol. The excess molar enthalpy ([2]; 308.15 K, x2 = 0.407) was -0.2985 ± 0.00263 kcal/mol, the excess molar enthalpy ([2]; 308.15 K, x2 = 0.507) was -0.3043 ± 0.00263 kcal/mol and the excess molar enthalpy ([2]; 308.15 K, x2 = 0.607) was -0.2837 ± 0.00239 kcal/mol. The excess molar enthalpy ([2]; 308.15 K, x2 = 0.708) was -0.238 ± 0.00239 kcal/mol, the excess molar enthalpy ([2]; 308.15 K, x2 = 0.808) was -0.174 ± 0.00215 kcal/mol and the excess molar enthalpy ([2]; 308.15 K, x2 = 0.909) was -0.0927 ± 0.00215 kcal/mol. The excess molar enthalpy ([2]; 308.15 K, x2 = 0.95) was -0.0523 ± 0.00215 kcal/mol and the excess molar enthalpy ([2]; 308.15 K, x2 = 0.97) was -0.0344 ± 0.00215 kcal/mol.
In the case of ClCCCCCl [1,4-dichlorobutane], the mass density [1] is reported as 1133.63 ± 4.8 kg/m3 and the “vapor or sublimation pressure” value ([1]; 323.15 K) is reported as 2.205 ± 0.011 kPa.
For ClCCCCCl [1,4-dichlorobutane] + CN1CCCC1=O, the excess molar enthalpy ([2]; 298.15 K, x2 = 0.064) was -0.0301 ± 0.00143 kcal/mol, the excess molar enthalpy ([2]; 298.15 K, x2 = 0.113) was -0.0535 ± 0.00143 kcal/mol and the excess molar enthalpy ([2]; 298.15 K, x2 = 0.21) was -0.097 ± 0.00143 kcal/mol. For the same compound, the excess molar enthalpy ([2]; 298.15 K, x2 = 0.308) was -0.131 ± 0.00167 kcal/mol, the excess molar enthalpy ([2]; 298.15 K, x2 = 0.406) was -0.152 ± 0.00167 kcal/mol and the excess molar enthalpy ([2]; 298.15 K, x2 = 0.505) was -0.162 ± 0.00167 kcal/mol. For the same compound, the excess molar enthalpy ([2]; 298.15 K, x2 = 0.604) was -0.158 ± 0.00167 kcal/mol, the excess molar enthalpy ([2]; 298.15 K, x2 = 0.703) was -0.139 ± 0.00167 kcal/mol and the excess molar enthalpy ([2]; 298.15 K, x2 = 0.803) was -0.107 ± 0.00167 kcal/mol. The excess molar enthalpy ([2]; 298.15 K, x2 = 0.903) was -0.0605 ± 0.00143 kcal/mol, the excess molar enthalpy ([2]; 298.15 K, x2 = 0.954) was -0.032 ± 0.00143 kcal/mol and the excess molar enthalpy ([2]; 308.15 K, x2 = 0.06) was -0.028 ± 0.00143 kcal/mol. The excess molar enthalpy ([2]; 308.15 K, x2 = 0.109) was -0.0523 ± 0.00143 kcal/mol, the excess molar enthalpy ([2]; 308.15 K, x2 = 0.207) was -0.0942 ± 0.00143 kcal/mol and the excess molar enthalpy ([2]; 308.15 K, x2 = 0.305) was -0.125 ± 0.00143 kcal/mol. For the same compound, the excess molar enthalpy ([2]; 308.15 K, x2 = 0.403) was -0.147 ± 0.00167 kcal/mol, the excess molar enthalpy ([2]; 308.15 K, x2 = 0.501) was -0.156 ± 0.00167 kcal/mol and the excess molar enthalpy ([2]; 308.15 K, x2 = 0.599) was -0.152 ± 0.00167 kcal/mol. It also gave an excess molar enthalpy ([2]; 308.15 K, x2 = 0.698) of -0.135 ± 0.00167 kcal/mol, an excess molar enthalpy ([2]; 308.15 K, x2 = 0.797) of -0.103 ± 0.00143 kcal/mol and an excess molar enthalpy ([2]; 308.15 K, x2 = 0.895) of -0.0586 ± 0.00143 kcal/mol. The excess molar enthalpy ([2]; 308.15 K, x2 = 0.945) was -0.0294 ± 0.00143 kcal/mol and the excess molar enthalpy ([2]; 308.15 K, x2 = 0.964) was -0.0189 ± 0.00143 kcal/mol.
In the case of ClCCCCCCCl [1,6-dichlorohexane], the mass density [1] is reported as 1063.7 ± 2 kg/m3.
Compound ClCCCCCCCl [1,6-dichlorohexane] + CN1CCCC1=O has an excess molar enthalpy ([2]; 298.15 K, x2 = 0.068) of -0.0108 ± 0.000956 kcal/mol, an excess molar enthalpy ([2]; 298.15 K, x2 = 0.116) of -0.0191 ± 0.000956 kcal/mol and an excess molar enthalpy ([2]; 298.15 K, x2 = 0.212) of -0.0311 ± 0.000956 kcal/mol. The excess molar enthalpy ([2]; 298.15 K, x2 = 0.309) was -0.0404 ± 0.0012 kcal/mol, the excess molar enthalpy ([2]; 298.15 K, x2 = 0.405) was -0.0457 ± 0.0012 kcal/mol and the excess molar enthalpy ([2]; 298.15 K, x2 = 0.503) was -0.0478 ± 0.0012 kcal/mol. It also gave an excess molar enthalpy ([2]; 298.15 K, x2 = 0.6) of -0.0457 ± 0.0012 kcal/mol, an excess molar enthalpy ([2]; 298.15 K, x2 = 0.699) of -0.0394 ± 0.0012 kcal/mol and an excess molar enthalpy ([2]; 298.15 K, x2 = 0.797) of -0.0294 ± 0.000956 kcal/mol. It also gave an excess molar enthalpy ([2]; 298.15 K, x2 = 0.896) of -0.0155 ± 0.000956 kcal/mol, an excess molar enthalpy ([2]; 298.15 K, x2 = 0.946) of -0.00765 ± 0.000956 kcal/mol and an excess molar enthalpy ([2]; 308.15 K, x2 = 0.041) of -0.0055 ± 0.000956 kcal/mol. It also gave an excess molar enthalpy ([2]; 308.15 K, x2 = 0.06) of -0.00789 ± 0.000956 kcal/mol, an excess molar enthalpy ([2]; 308.15 K, x2 = 0.109) of -0.0148 ± 0.000956 kcal/mol and an excess molar enthalpy ([2]; 308.15 K, x2 = 0.207) of -0.0244 ± 0.000956 kcal/mol. It also gave an excess molar enthalpy ([2]; 308.15 K, x2 = 0.305) of -0.0325 ± 0.000956 kcal/mol, an excess molar enthalpy ([2]; 308.15 K, x2 = 0.403) of -0.037 ± 0.000956 kcal/mol and an excess molar enthalpy ([2]; 308.15 K, x2 = 0.502) of -0.0387 ± 0.000956 kcal/mol. It also gave an excess molar enthalpy ([2]; 308.15 K, x2 = 0.6) of -0.0363 ± 0.000956 kcal/mol, an excess molar enthalpy ([2]; 308.15 K, x2 = 0.699) of -0.032 ± 0.000956 kcal/mol and an excess molar enthalpy ([2]; 308.15 K, x2 = 0.799) of -0.0241 ± 0.000956 kcal/mol. For the same compound, the excess molar enthalpy ([2]; 308.15 K, x2 = 0.898) was -0.0127 ± 0.000956 kcal/mol, the excess molar enthalpy ([2]; 308.15 K, x2 = 0.948) was -0.00598 ± 0.000956 kcal/mol and the excess molar enthalpy ([2]; 308.15 K, x2 = 0.968) was -0.00335 ± 0.000956 kcal/mol.
